# Experimental data from patent publication US20240150321A1, “PYRAZOLYLSULFONAMIDE COMPOUNDS AND THEIR USE IN THERAPY” (HOTSPOT THERAPEUTICS, INC., priority 2022, published 2024).
# Read-outs that look alike come from different tables or passages of the source.
# Key:
# [1] = system: NF-kB reporter in Jurkat cells; assay: NF-kB reporter assay in Jurkat cells stimulated with aCD3/aCD28/PMA; type: cell-based; settings: read-out: NF-kB Reporter Assay IC50
# Method in brief: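 Jurkat cells (25,000/well, serum-free RPMI) were pre-incubated 1 h at 37° C with serially diluted compound, then stimulated 4 h with aCD3/aCD28/PMA at final […]. NF-kB reporter activity was read by One-Glo luminescence; IC50 values reported.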
# Avi-tagged FL MALT-1 = Avi-tagged FL MALT-1 (Homo sapiens (Human), UniProt Q9UDY8); assay: MALT-1 Fluorogenic Peptide Cleavage Assay (MALT1 inhibition assay); type: biochemical; settings: Ac-LRSR-AMC peptide substrate, 30 min pre-incubation, 90 min reaction at room temperature
# Method in brief: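 Full-length Avi-tagged human MALT-1 (40 nM working stock) pre-incubated 30 min at RT with compound in 25 mM HEPES pH 6.89, 660 mM sodium citrate, 1 mM TCEP, […], 0.05% CHAPS, 2% DMSO. Ac-LRSR-AMC added at Km (50 μM working stock) or 10×Km (280 μM working stock); 90 min at RT, AMC fluorescence (ex 342/em 441 nm), IC50 from % inhibition curves.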
# [2] = Homo sapiens, Jurkat cells, 1 hr compound pre-incubation, aCD3/aCD28/PMA stimulation 4 hr, One-Glo readout
# Chain of Avi-tagged FL MALT-1 (Q9UDY8 whole entry): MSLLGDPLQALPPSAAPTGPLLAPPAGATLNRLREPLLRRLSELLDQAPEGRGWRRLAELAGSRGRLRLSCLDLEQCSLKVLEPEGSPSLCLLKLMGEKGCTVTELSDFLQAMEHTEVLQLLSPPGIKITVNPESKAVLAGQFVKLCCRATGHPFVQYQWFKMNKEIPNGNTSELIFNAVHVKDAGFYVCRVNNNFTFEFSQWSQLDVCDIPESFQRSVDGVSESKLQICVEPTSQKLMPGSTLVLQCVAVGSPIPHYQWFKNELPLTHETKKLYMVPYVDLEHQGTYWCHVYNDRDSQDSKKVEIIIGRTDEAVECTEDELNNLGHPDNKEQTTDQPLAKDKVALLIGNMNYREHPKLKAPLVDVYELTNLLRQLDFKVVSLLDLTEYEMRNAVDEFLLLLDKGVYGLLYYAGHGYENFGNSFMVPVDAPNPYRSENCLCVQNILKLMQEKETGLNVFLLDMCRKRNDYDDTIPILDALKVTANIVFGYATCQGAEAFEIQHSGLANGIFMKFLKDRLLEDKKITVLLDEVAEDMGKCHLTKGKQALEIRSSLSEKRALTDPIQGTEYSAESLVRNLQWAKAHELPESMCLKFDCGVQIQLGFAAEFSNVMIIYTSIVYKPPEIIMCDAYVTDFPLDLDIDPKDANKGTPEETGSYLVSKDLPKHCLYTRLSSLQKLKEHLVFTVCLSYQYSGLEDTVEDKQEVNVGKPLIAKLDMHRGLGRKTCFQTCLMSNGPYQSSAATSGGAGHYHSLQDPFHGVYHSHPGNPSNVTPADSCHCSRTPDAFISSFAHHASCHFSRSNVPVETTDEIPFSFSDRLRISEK
"IC50 [1, 2]",IC50 (Avi-tagged FL MALT-1),"IC50 ([1]; Jurkat cells, 1 hr compound pre-incubation, aCD3/aCD28/PMA stimulation 4 hr, One-Glo readout)",Compound,"IC50 ([1]; Homo sapiens, Jurkat)"
400 to 1000 nM,≤ 400 nM,,"CCOc1ccc2cnn(C)c2c1NS(=O)(=O)c1cnn(-c2ccnc(C(F)(F)F)c2)c1 [Compound I-9, N-(6-Ethoxy-1-Methyl-1H-Indazol-7-yl)-1-(2-(Trifluoromethyl)Pyridin-4-yl)-1H-Pyrazole-4-Sulfonamide]",
< 400 nM,> 2500 nM,,COC[C@@](C)(OC)c1ccnc(-n2cc(S(=O)(=O)Nc3cccc4cnn(C)c34)cn2)c1 [Compound I-301],
400 to 1000 nM,≤ 400 nM,,"Cc1ccc2cnn(C)c2c1NS(=O)(=O)c1cnn(-c2ccnc(C(F)(F)F)c2)c1 [Compound I-59, N-(1,6-Dimethyl-1H-Indazol-7-yl)-1-(2-(Trifluoromethyl)Pyridin-4-yl)-1H-Pyrazole-4-Sulfonamide]",
> 2500 nM,> 2500 nM,,"Cn1ncc2cccc(NS(=O)(=O)c3cnn(-c4cc(N5CC(C(N)=O)C5)ccn4)c3)c21 [Compound I-471, 1-(2-(4-(N-(1-methyl-1H-indazol-7-yl)sulfamoyl)-1H-pyrazol-1-yl)pyridin-4-yl)azetidine-3-carboxamide]",
400 to 1000 nM,≤ 400 nM,,"CN(C)c1ccc2cnn(C)c2c1NS(=O)(=O)c1cnn(-c2ccnc(C(F)(F)F)c2)c1 [Compound I-7, N-(6-(Dimethylamino)-1-Methyl-1H-Indazol-7-yl)-1-(2-(Trifluoromethyl)Pyridin-4-yl)-1H-Pyrazole-4-Sulfonamide]",
< 400 nM,≤ 400 nM,,"[2H]c1nn(C([2H])([2H])[2H])c2c(NS(=O)(=O)c3cnn(-c4cc(C(F)(F)F)ccn4)c3)cccc12 [Compound I-353, N-(1-(methyl-d3)-1H-indazol-7-yl-3-d)-1-(4-(trifluoromethyl)pyridin-2-yl)-1H-pyrazole-4-sulfonamide]",
< 400 nM,≤ 400 nM,,"COc1ncc2cnn(C)c2c1NS(=O)(=O)c1cnn(-c2cc(C3(OC)COC3)ccn2)c1 [Compound I-125, N-{6-methoxy-1-methylpyrazolo [4,3-c]pyridin-7-yl}-1-[4-(3-methoxyoxetan-3-yl)pyridin-2-yl]pyrazole-4-sulfonamide]",
< 400 nM,> 2500 nM,,"Cc1n[nH]c2cccc(NS(=O)(=O)c3cnn(-c4cc(C5(F)COC5)ccn4)c3)c12 [Compound I-240, 1-[4-(3-fluorooxetan-3-yl)pyridin-2-yl]-N-(3-methyl-1H-indazol-4-yl)pyrazole-4-sulfonamide]",
< 400 nM,> 2500 nM,,"C[C@@H]1CN(c2ccnc(-n3cc(S(=O)(=O)Nc4cccc5cnn(C)c45)cn3)c2)C(=O)N1C [Compound I-347, (R)-1-(4-(3,4-dimethyl-2-oxoimidazolidin-1-yl)pyridin-2-yl)-N-(1-methyl-1H-indazol-7-yl)-1H-pyrazole-4-sulfonamide]",
< 400 nM,> 2500 nM,,"COc1ccc2cnn(C)c2c1NS(=O)(=O)c1cnn(-c2cc(N3CCC(F)(F)C3)ccn2)c1 [Compound I-435, 1-(4-(3,3-difluoropyrrolidin-1-yl)pyridin-2-yl)-N-(6-methoxy-1-methyl-1H-indazol-7-yl)-1H-pyrazole-4-sulfonamide]",
< 400 nM,> 2500 nM,,C[C@H]1CN(c2ccnc(-n3cc(S(=O)(=O)Nc4cccc5cnn(C)c45)cn3)c2)C(=O)O1 [Compound I-319],
< 400 nM,> 2500 nM,,"COC(C)(C)c1ccnc(-n2cc(S(=O)(=O)Nc3cccc4cnn(C)c34)cn2)c1 [Compound I-114, 1-(4-(2-Methoxypropan-2-yl)Pyridin-2-yl)-N-(1-Methyl-1H-Indazol-7-yl)-1H-Pyrazole-4-Sulfonamide]",
< 400 nM,400 to 1000 nM,,"COc1ccc2cnn(C)c2c1NS(=O)(=O)c1cnn(-c2cc(C3COC3)ccn2)c1 [Compound I-262, N-(6-methoxy-1-methyl-1H-indazol-7-yl)-1-(4-(oxetan-3-yl)pyridin-2-yl)-1H-pyrazole-4-sulfonamide]",
< 400 nM,> 2500 nM,,Cn1ncc2cccc(NS(=O)(=O)c3cnn(-c4cc([C@]5(F)CCOC5)ccn4)c3)c21 [Compound I-335],
< 400 nM,≤ 400 nM,,"COc1ccc2cnn(C)c2c1NS(=O)(=O)c1cnn(-c2cc(C(F)(F)F)ccn2)c1 [Compound I-72, N-(6-Methoxy-1-(Methyl-D3)-1H-Indazol-7-yl)-1-(4-(Trifluoromethyl)Pyridin-2-yl)-1H-Pyrazole-4-Sulfonamide]",
< 400 nM,≤ 400 nM,,"CC[C@H](OC)c1ccnc(-n2cc(S(=O)(=O)Nc3c(OC)ccc4cnn(C)c34)cn2)c1 [Compound I-317, (S)—N-(6-Methoxy-1-Methyl-1H-Indazol-7-yl)-1-(4-(1-Methoxypropyl)Pyridin-2-yl)-1H-Pyrazole-4-Sulfonamide]",
< 400 nM,> 2500 nM,,"Cn1ncc2cccc(NS(=O)(=O)c3cnn(-c4cc(N5CC(C)(C#N)C5)ccn4)c3)c21 [Compound I-450, 1-(4-(3-cyano-3-methylazetidin-1-yl)pyridin-2-yl)-N-(1-methyl-1H-indazol-7-yl)-1H-pyrazole-4-sulfonamide]",
< 400 nM,> 2500 nM,,"C[C@@H]1CCN(c2ccnc(-n3cc(S(=O)(=O)Nc4cccc5cnn(C)c45)cn3)c2)C1 [Compound I-401, N-(1-methylindazol-7-yl)-1-{4-[(3R)-3-methylpyrrolidin-1-yl]pyridin-2-yl}pyrazole-4-sulfonamide]",
,≤ 400 nM,< 400 nM,"CCC(C)(OC)c1ccnc(-n2cc(S(=O)(=O)Nc3c(OC)ccc4cnn(C)c34)cn2)c1 (single isomer, unassigned) [Compound I-361, N-(6-methoxy-1-methyl-1H-indazol-7-yl)-1-(4-(2-methoxybutan-2-yl)pyridin-2-yl)-1H-pyrazole-4-sulfonamide]",
< 400 nM,> 2500 nM,,"COC1(c2ccnc(-n3cc(S(=O)(=O)Nc4cccc5cnn(C)c45)cn3)c2)CCC1 [Compound I-93, 1-(4-(1-Methoxycyclobutyl)Pyridin-2-yl)-N-(1-Methyl-1H-Indazol-7-yl)-1H-Pyrazole-4-Sulfonamide]",

Compound,"IC50 [1, 2]",IC50 (Avi-tagged FL MALT-1),"IC50 ([1]; Jurkat cells, 1 hr compound pre-incubation, aCD3/aCD28/PMA stimulation 4 hr, One-Glo readout)","IC50 ([1]; Homo sapiens, Jurkat)"
"O=S(=O)(c1cnn(-c2cc(C(F)(F)F)ccn2)c1)N1CCn2ncc3cccc1c32 [Compound I-355, 1-((1-(4-(trifluoromethyl)pyridin-2-yl)-1H-pyrazol-4-yl)sulfonyl)-2,3-dihydro-1H-pyrazolo[1,5,4-de]quinoxaline]",,> 2500 nM,,> 2500 nM
"COc1ccc2cnn(C)c2c1NS(=O)(=O)c1cnn(-c2cc(C3(C#N)CC3)ccn2)c1 [Compound I-470, 1-[4-(1-cyanocyclopropyl)pyridin-2-yl]-N-(6-methoxy-1-methylindazol-7-yl)pyrazole-4-sulfonamide]",,400 to 1000 nM,,< 400 nM
"Cn1ncc2cccc(NS(=O)(=O)c3cnn(-c4cc(C5(C#N)CC5)ccn4)c3)c21 [Compound I-469, 1-(4-(1-cyanocyclopropyl)pyridin-2-yl)-N-(1-methyl-1H-indazol-7-yl)-1H-pyrazole-4-sulfonamide]",,> 2500 nM,,< 400 nM
"Cn1ncc2ccc(OC(F)(F)F)c(NS(=O)(=O)c3cnn(-c4cc(C(F)(F)F)ccn4)c3)c21 [Compound I-327, N-[1-methyl-6-(trifluoromethoxy)indazol-7-yl]-1-[4-(trifluoromethyl)pyridin-2-yl]pyrazole-4-sulfonamide]",,≤ 400 nM,,< 400 nM
